From patent publication US7183268B2, “2-amino-9-[(2-hydroxymethyl) cyclopropylidenemethyl] purine antiviral agents” (Wayne State University, priority 2002, dated 2007)
Like-named read-outs stand apart in the source and are kept apart here.

Columns and labels:
[1] = system: HSV-1; test: HSV-1 ELISA in BSC-1 cells; format: cell-based
Experimental: (§1) Cells and viruses. The routine growth and passage of KB cells was performed in monolayer cultures using minimal essential medium (MEM) with either Hanks salts [MEM(H)] or Earle salts [MEM(E)] supplemented with 10% calf serum. The sodium bicarbonate concentration was varied to meet the buffering capacity required. Cultures of diploid human foreskin fibroblasts (HFF) or MRC-5 cells were grown in medium consisting of MEM(E) with 10% fetal bovine serum. Cells were passaged at 1:2 to 1:10 dilutions according to conventional procedures by using 0.05% trypsin plus 0.02% EDTA in a HEPES buffered salt solution (HBS) (Shipman, C., Jr., Proc. Soc. Exp. Biol. 130:305–310 (1969)) as described previously. (Turk, S. R., et al., Antimicrob. Agents Chemother. 31:544–550 (1987). HFF and MRC-5 cells were passaged only at 1:2 dilutions.
(§2) Virological procedures. Stock HCMV was prepared by infecting HFF cells at a multiplicity of infection (m.o.i.) of <0.01 plaque-forming units (p.f.u.) per cell. Cell growth medium was changed every four days until cytopathology was evident in all cells (approximately 21 days). Supernatant fluids were retained as the virus stock. High titer HSV-1 stocks were prepared by infecting KB cells at an m.o.i. of <0.1 as detailed previously. (Turk, S. R., et al., Antimicrob. Agents Chemother. 31:544–550 (1987). Virus titers were determined using monolayer cultures of HFF cells for HCMV and monolayer cultures of BSC-1 cells for HSV-1 as described earlier. (Prichard, M. N. et al., J. Virol. Methods 28:101–106 (1990). Briefly, HFF or BSC-1 cells were planted as described above in 96-well cluster dishes and incubated overnight at 37° C. in a humidified 3% CO2–97% air atmosphere. The next day cultures were inoculated with HCMV or HSV-1 and serially diluted 1:3 across the remaining eleven columns of the 96-well plate. Cultures were incubated at 37° C. for 2 hr to permit virus adsorption and then virus inoculum was replaced with 0.2 mL of fresh medium. Cultures were incubated for seven days for HCMV, two or three days for HSV-1, medium was removed, and the cell sheets were stained with 0.1% crystal violet in 20% methanol. Plaques were enumerated under 20-fold magnification in wells having the dilution which gave 5 to 20 plaques per well. Virus titers were calculated according to the following formula: Titer (p.f.u./mL)=number of plaques×5×3^n; where n represents the nth dilution of the virus used to infect the well in which plaques were enumerated.
Assays for Antiviral Activity. (b) HSV-1. An enzyme-linked immunosorbent assay (ELISA) was employed to detect HSV-1. 96-well cluster dishes were planted with BSC-1 cells at 10,000 cells per well, in a total volume of 200 μL per well of MEM(E) plus 10% calf serum. After overnight incubation at 37° C., drug and HSV-1 was added at the rate of 100 PFU/well. ELISA plates were blocked with 200 μL per well of 10% calf serum and 0.05% tween in HBS. After incubation for 30 minutes, the blocking agent was rinsed two times with HBS-T. A 1:400 dilution of AP conjugated rabbit anti-HSV-1 antibody in HBS-F was added. Plates were sealed with adhesive sheet, and incubated on rocker for one hour at 37° C. Plates were developed in the dark with 100 μL per well of substrate solution containing p-nitrophenyl phosphate. Plates were read at 492 nm. Drug effects were calculated as a percentage of the reduction in virus in the presence of each drug concentration compared to the titer obtained in the absence of drug. Acyclovir was used as a positive control in all experiments.
Data Analysis. Dose-response relationships were constructed by linearly regressing the percent inhibition of parameters derived in the preceding sections against log drug concentrations. Fifty-percent inhibitory (IC50) concentrations were calculated from the regression lines. Samples containing positive controls (acyclovir for HSV-1, ganciclovir for HCMV, and 2-acetylpyridine thiosemicarbazone for cytotoxicity) were used in all assays. […]

[2] = system: Growing KB cells; test: Cytotoxicity in growing KB cells (crystal violet staining); format: cell-based
Experimental: as §1
(§3) Cytotoxicity assays. Two different assays were used to explore cytotoxicity of selected compounds as we have detailed previously. (i) Cytotoxicity produced in stationary HFF cells was determined by microscopic inspection of cells used in plaque assays which were not affected by the virus. (ii) The effect of compounds during two population doublings of KB cells was determined by crystal violet staining and spectrophotometric quantitation of dye eluted from stained cells. (Turk, S. R., et al., Antimicrob. Agents Chemother. 35:1060–1065 (1991).
(§4) Data Analysis. Dose-response relationships were constructed by linearly regressing the percent inhibition of parameters derived in the preceding sections against log drug concentrations. Fifty-percent inhibitory (IC50) concentrations were calculated from the regression lines. Samples containing positive controls (acyclovir for HSV-1, ganciclovir for HCMV, and 2-acetylpyridine thiosemicarbazone for cytotoxicity) were used in all assays. Results from sets of assays were rejected if inhibition by the positive control deviated from its mean response by >±1.5 standard deviations.

[3] = system: Stationary HFF cells; test: Cytotoxicity in stationary HFF cells (microscopic inspection); format: cell-based, human
Experimental: as §1, §3, §4

[4] = system: HCMV; test: HCMV plaque reduction assay in HFF cells; format: cell-based
Experimental: as §1, §2
Assays for Antiviral Activity. (a) HCMV. The effect of compounds on the replication of HCMV has been measured using a plaque reduction assay. HFF cells in 24-well cluster dishes were infected with approximately 100 p.f.u. of HCMV per cm^2 cell sheet using the procedures detailed above. Following virus adsorption, compounds dissolved in growth medium were added to duplicate wells in three to six selected concentrations. Following incubation at 37° C. for 7 to 10 days, cell sheets were fixed, stained with crystal violet and microscopic plaques enumerated as described above. Drug effects were calculated as a percentage of reduction in number of plaques in the presence of each drug concentration compared to the number observed in the absence of drug. Ganciclovir (GCV) was used as a positive control in all experiments.
as §4

SMILES | IC50 [1] [µM] | IC50 [2] [µM] | IC50 [3] [µM] | IC50 ([4]; HFF host cells) [µM] | IC50 ([1]; Human alphaherpesvirus 1) [µM] | IC50 ([2]; Homo sapiens) [µM] | IC50 ([3]; Homo sapiens) [µM] | IC50 ([4]; Human betaherpesvirus 5, HFF host cells) [µM]
C=CCOc1nc(N)nc2c1ncn2/C=C1/C[C@@H]1CO [Compound 14, (Z,S)-(+)-2-Amino-6-allyloxy-9-[(2-hydroxymethyl)cyclopropylidenemethyl]purine] | 1.5 | > 100 | > 100 | 0.33 | – | – | – | –
Nc1nc(NC2CCCCC2)c2ncn(/C=C3/C[C@@H]3CO)c2n1 [Compound 11, (Z,S)-(+)-2-Amino-6-cyclohexylamino-9-[(2-hydroxymethyl)-cyclopropylidenemethyl]purine] | 15 | > 100 | > 100 | > 100 | – | – | – | –
CCCCCSc1nc(N)nc2c1ncn2/C=C1/C[C@@H]1CO [Compound 16b, (Z,S)-(+)-2-Amino-6-pentylthio-9-[(2-hydroxymethyl)cyclopropylidenemethyl]purine] | 7 | > 100 | > 100 | 0.32 | – | – | – | –
CCCCCOc1nc(N)nc2c1ncn2/C=C1/C[C@@H]1CO [Compound 13b, (Z,S)-(+)-2-Amino-6-pentyloxy-9-[(2-hydroxymethyl)cyclopropylidenemethyl]purine] | 7 | > 100 | > 100 | 0.21 | – | – | – | –
Nc1nc(NCC2CC2)c2ncn(/C=C3/C[C@@H]3CO)c2n1 [Compound 8, (Z,S)-(+)-2-Amino-6-cyclopropylmethylamino-9-[(2-hydroxymethyl)cyclopropylidenemethyl]purine] | 2.5 | > 100 | > 100 | 3.8 | – | – | – | –
CC(C)Nc1nc(N)nc2c1ncn2/C=C1/C[C@@H]1CO [Compound 9, (Z,S)-(+)-2-Amino-6-isopropylamino-9-[(2-hydroxymethyl)-cyclopropylidenemethyl]purine] | 15 | > 100 | > 100 | 3.8 | – | – | – | –
C#CCNc1nc(N)nc2c1ncn2/C=C1/C[C@@H]1CO [Compound 7, (Z,S)-(+)-2-Amino-6-propargylamino-9-[(2-hydroxymethyl)-cyclopropylidenemethyl]purine] | 6 | > 100 | > 100 | 3.5 | – | – | – | –
CCCSc1nc(N)nc2c1ncn2/C=C1/C[C@@H]1CO [Compound 16a, (Z,S)-(+)-2-Amino-6-propylthio-9-[(2-hydroxymethyl)cyclopropylidenemethyl]purine] | 1 | > 100 | > 100 | 0.22 | – | – | – | –
Nc1nc(OCC2CC2)c2ncn(/C=C3/C[C@@H]3CO)c2n1 [Compound 15, (Z,S)-(+)-2-Amino-6-cyclopropylmethoxy-9-[(2-hydroxymethyl)cyclopropylidenemethyl]purine] | 7 | > 100 | > 100 | 0.32 | – | – | – | –
Nc1nc(NCCO)c2ncn(/C=C3/C[C@@H]3CO)c2n1 [Compound 12, (Z,S)-(+)-2-Amino-6-(2-hydroxy)ethylamino-9-[(2-hydroxymethyl)cyclopropylidenemethyl]purine] | > 100 | > 100 | > 100 | 39 | – | – | – | –
Nc1nc2c(ncn2COCCO)c(=O)[nH]1 [Acyclovir, reference compound] | – | – | – | – | 0.15 | > 100 | – | –
C=CCNc1nc(N)nc2c1ncn2/C=C1/C[C@@H]1CO [Compound 6, (Z,S)-(+)-2-Amino-6-allylamino-9-[(2-hydroxymethyl)cyclopropylidenemethyl]purine] | 4 | > 100 | > 100 | 1.8 | – | – | – | –
CCCOc1nc(N)nc2c1ncn2/C=C1/C[C@@H]1CO [Compound 13a, (Z,S)-(+)-2-Amino-6-propoxy-9-[(2-hydroxymethyl)cyclopropylidenemethyl]purine] | 1 | > 100 | > 100 | 0.26 | – | – | – | –
Nc1ncc2ncn(/C=C3/C[C@@H]3CO)c2n1 [Compound 18, (Z,S)-(+)-2-Amino-9-[(2-hydroxymethyl)cyclopropylidenemethyl]purine] | 35 | > 100 | > 100 | > 100 | – | – | – | –
Nc1nc(O)c2ncn(COC(CO)CO)c2n1 [Ganciclovir, reference compound] | – | – | – | – | – | – | > 100 | 4.1
Nc1nc(S)c2ncn(/C=C3/C[C@@H]3CO)c2n1 [Compound 17, (Z,S)-(+)-2-Amino-6-thio-9-[(2-hydroxymethyl)cyclopropylidenemethyl]purine] | > 100 | > 100 | > 100 | 37 | – | – | – | –
Nc1nc(NCc2ccccc2)c2ncn(/C=C3/C[C@@H]3CO)c2n1 [Compound 10, (Z,S)-(+)-2-Amino-6-benzylamino-9-[(2-hydroxymethyl)cyclopropylidenemethyl]purine] | 25 | > 100 | > 100 | > 100 | – | – | – | –
